Source: the supplement of paper PMC10307832

Assays:
Test in all cases: relative viability (nuclei count vs DMSO), 5 days (fraction); higher = more cells survive
Cediranib + Linsitinib = compound: COc1cc2c(Oc3ccc4[nH]c(C)cc4c3F)ncnc2cc1OCCCN1CCCC1 [Cediranib] + C[C@]1(O)C[C@@H](c2nc(-c3ccc4ccc(-c5ccccc5)nc4c3)c3c(N)nccn32)C1 [Linsitinib] (partner 1 µM)
How it was run: (§1)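 Nuclei were stained with Hoechst during a one-step fixation (final 0.05% Triton X-100, 1% formaldehyde, 1 ug/ml Hoechst) carried out 5 days after dosing, then counted on 4× images. The cells, lung cancer lines in 1536-well plates, had been dosed by pin tool the day after seeding with one drug alone or a fixed anchor-drug dose plus five library-drug doses (not always all listed) in √10 steps. Relative viability is the nuclei count in treated wells divided by that in vehicle wells, and each value is the median of duplicate plates.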

[1] = compound: O=C(C[C@H]1NCCC[C@@H]1O)Cn1cnc2cc(Br)c(Cl)cc2c1=O (racemic) [Halofuginone] + CC(=O)c1c(C)c2cnc(Nc3ccc(N4CCNCC4)cn3)nc2n(C2CCCC2)c1=O [Palbociclib] (partner 0.5 µM)
How it was run: as §1

Decitabine + Bortezomib = compound: Nc1ncn([C@H]2C[C@H](O)[C@@H](CO)O2)c(=O)n1 [Decitabine] + CC(C)C[C@H](NC(=O)[C@H](Cc1ccccc1)NC(=O)c1cnccn1)B(O)O [Bortezomib] (partner 0.002 µM)
How it was run: as §1

| Cell Line | relative viability (Cediranib + Linsitinib; first compound 0.04 µM) | relative viability (Cediranib + Linsitinib; first compound 0.1265 µM) | relative viability (Cediranib + Linsitinib; first compound 0.4 µM) | relative viability (Cediranib + Linsitinib; first compound 1.265 µM) | relative viability (Cediranib + Linsitinib; first compound 4 µM) | relative viability ([1]; first compound 0.001 µM) | relative viability ([1]; first compound 0.003162 µM) | relative viability ([1]; first compound 0.01 µM) | relative viability ([1]; first compound 0.03162 µM) | relative viability ([1]; first compound 0.1 µM) | relative viability (Decitabine + Bortezomib; first compound 0.04 µM) | relative viability (Decitabine + Bortezomib; first compound 0.1265 µM) | relative viability (Decitabine + Bortezomib; first compound 0.4 µM) | relative viability (Decitabine + Bortezomib; first compound 1.265 µM) | relative viability (Decitabine + Bortezomib; first compound 4 µM) |
| --- | --- | --- | --- | --- | --- | --- | --- | --- | --- | --- | --- | --- | --- | --- | --- |
| HCC-78 | 0.664 | 0.625 | 0.478 | 0.487 | 0.502 | 0.516 | 0.519 | 0.497 | 0.488 | 0.551 | 0.52 | 0.517 | 0.435 | 0.385 | 0.328 |
| PC-14 | 0.935 | 0.986 | 0.905 | 0.897 | 0.965 | 0.509 | 0.597 | 0.514 | 0.17 | 0.0426 | 0.35 | 0.507 | 0.369 | 0.221 | 0.168 |
| NCI-H2087 | 0.995 | 1.03 | 0.921 | 0.843 | 0.959 | 0.254 | 0.22 | 0.189 | 0.22 | 0.2 | 0.603 | 0.55 | 0.51 | 0.33 | 0.36 |
| HOP-62 | 1.11 |  | 1.04 | 0.853 | 1.18 | 0.435 | 0.427 | 0.426 | 0.375 | 0.227 | 0.418 | 0.23 | 0.23 | 0.0953 | 0.0952 |
| EKVX | 1.05 | 1.03 | 0.889 | 1 | 0.86 | 0.377 | 0.352 | 0.415 | 0.444 | 0.306 | 0.71 | 0.776 | 0.798 | 0.383 | 0.381 |
| EMC-BAC-2 | 0.872 | 0.832 | 0.799 | 0.777 | 0.837 | 0.545 | 0.531 | 0.506 | 0.536 | 0.37 | 1.04 | 1.13 | 0.754 | 0.747 | 0.632 |
| HARA | 0.916 | 1.14 | 0.96 | 0.955 | 0.975 | 0.382 | 0.266 | 0.234 | 0.264 | 0.216 | 0.819 | 0.7 | 0.511 | 0.431 | 0.308 |
| LU99A | 0.517 |  | 0.565 | 0.518 | 0.573 | 0.444 | 0.466 | 0.393 | 0.401 | 0.41 | 1.06 | 1.26 | 1.31 | 0.989 | 0.949 |
| NCI-H441 | 0.445 | 0.546 | 0.524 | 0.551 | 0.652 | 0.254 | 0.241 | 0.206 | 0.241 | 0.152 | 0.228 | 0.26 | 0.231 | 0.198 | 0.198 |
| NCI-H23 | 0.698 |  | 0.542 | 0.442 | 0.682 | 0.694 | 0.501 | 0.479 | 0.562 | 0.331 | 0.571 | 0.493 | 0.307 | 0.216 | 0.233 |
| NCI-H647 | 1.34 | 1.13 | 1.15 | 1.11 | 1.41 | 0.413 | 0.399 | 0.422 | 0.287 | 0.105 | 0.728 | 0.821 | 0.344 | 0.241 | 0.209 |
| 201T | 1.11 | 1.18 | 0.941 | 1.01 | 0.974 | 0.369 | 0.185 | 0.381 | 0.367 | 0.351 | 1.11 | 1.09 | 1.15 | 1 | 1.03 |
| NCI-H1734 | 0.932 | 0.847 | 0.928 | 0.776 | 1 | 0.338 | 0.361 | 0.33 | 0.32 | 0.2 | 0.646 | 0.867 | 0.571 | 0.424 | 0.331 |
